These compounds were tested against T1, human MGL from HeLa cells (Homo sapiens, UniProt Q99685) (assay: In vitro MGL activity assay: [glycerol-1,3-3H]-oleyl glycerol cleavage by MGL from HeLa cells). Details: 300 nM [Glycerol-1,3-3H]-oleyl glycerol, one hour.
T1 construct: combining endogenously expressed MGL from HeLa cells with test compounds; endogenous in cells; host or cells: HeLa cells / cell homogenates
T1 sequence (Q99685 1-303): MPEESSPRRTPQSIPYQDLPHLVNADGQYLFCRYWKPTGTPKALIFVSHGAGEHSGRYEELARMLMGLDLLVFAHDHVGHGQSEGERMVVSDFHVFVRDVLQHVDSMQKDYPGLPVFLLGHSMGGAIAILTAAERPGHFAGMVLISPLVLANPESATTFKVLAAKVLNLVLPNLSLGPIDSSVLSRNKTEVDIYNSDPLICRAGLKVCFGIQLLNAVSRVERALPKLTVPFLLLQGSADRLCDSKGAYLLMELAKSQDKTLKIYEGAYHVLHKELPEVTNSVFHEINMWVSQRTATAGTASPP
Assay type: biochemical
Excerpt: MGL is the predominant hydrolase in HeLa cells/cell homogenates.

Row | IC50 [nM] | SMILES
1 | 3.01 | C[C@H]1c2nn(C)c(-c3cc(F)c(F)c(F)c3)c2CCN1C(=O)c1cnn(C)c1[C@H]1CC1F (mixture of isomers) [Example 339, ((S)-2,7-Dimethyl-3-(3,4,5-trifluorophenyl)-2,4,5,7-tetrahydro-6H-pyrazolo[3,4-c]pyridin-6-yl)(cis-5-(2-fluorocyclopropyl)-1-methyl-1H-pyrazol-4-yl)methanone]
2 | 32.5 | C[C@H]1c2nn(C)c(-c3cc(F)c(F)c(F)c3)c2CCN1C(=O)c1cnn(C)c1C1CC1F (mixture of isomers) [Example 340, ((S)-2,7-Dimethyl-3-(3,4,5-trifluorophenyl)-2,4,5,7-tetrahydro-6H-pyrazolo[3,4-c]pyridin-6-yl)(trans-5-(2-fluorocyclopropyl)-1-methyl-1H-pyrazol-4-yl)methanone]
3 | 821 | CC1c2nn(C34CC(C3)C4)c(-c3ccccc3)c2CCN1C(=O)c1cnn(C)c1C1CC1 (racemic) [Example 615, racemic-(2-(Bicyclo[1.1.1]pentan-1-yl)-7-methyl-3-phenyl-2,4,5,7-tetrahydro-6H-pyrazolo[3,4-c]pyridin-6-yl)(5-cyclopropyl-1-methyl-1H-pyrazol-4-yl)methanone]
4 | 8.07 | C[C@H]1c2nn(C)c(-c3cc(F)c(F)c(F)c3)c2CCN1C(=O)c1cnn(C)c1C1CC1(F)F (single isomer, unassigned) [Example 337, (5-((R*)-2,2-difluorocyclopropyl)-1-methyl-1H-pyrazol-4-yl)((S)-2,7-dimethyl-3-(3,4,5-trifluorophenyl)-2,4,5,7-tetrahydro-6H-pyrazolo[3,4-c]pyridin-6-yl)methanone]
5 | 14.2 | C[C@H]1c2nn(C)c(-c3cc(F)c(F)c(F)c3)c2CCN1C(=O)c1cnn(C)c1C1CC1(F)F (single isomer, unassigned) [Example 338, (5-((S*)-2,2-Difluorocyclopropyl)-1-methyl-1H-pyrazol-4-yl)((S)-2,7-dimethyl-3-(3,4,5-trifluorophenyl)-2,4,5,7-tetrahydro-6H-pyrazolo[3,4-c]pyridin-6-yl)methanone]
6 | 255 | CC1c2nn(C34CC(C3)C4)c(-c3ccccc3)c2CCN1C(=O)c1cnn(C)c1C1CC1 (single isomer, unassigned) [Example 342, (S*)-(2-(Bicyclo[1.1.1]pentan-1-yl)-7-methyl-3-phenyl-2,4,5,7-tetrahydro-6H-pyrazolo[3,4-c]pyridin-6-yl)(5-cyclopropyl-1-methyl-1H-pyrazol-4-yl)methanone]

Same assay, conditions: 300 nM [Glycerol-1,3-3H]-oleyl glycerol, one hour incubation

Row | SMILES | IC50 [nM]
7 | Cn1nc2c(c1-c1ccccc1)CCN(C(=O)c1cccc3ccccc13)C2 [Example 1, (2-Methyl-3-phenyl-2,4,5,7-tetrahydro-6H-pyrazolo[3,4-c]pyridin-6-yl)(naphthalen-1-yl)methanone] | 13
8 | Cn1nc2c(c1C1CC1)CCN(C(=O)c1cccc(Cl)c1Cl)C2 [Example 2, (3-Cyclopropyl-2-methyl-2,4,5,7-tetrahydro-6H-pyrazolo[3,4-c]pyridin-6-yl)(2,3-dichlorophenyl)methanone] | 4600
9 | Cn1nc2c(c1C1CC1)CCN(C(=O)c1cccc3ccccc13)C2 [Example 3, (3-Cyclopropyl-2-methyl-2,4,5,7-tetrahydro-6H-pyrazolo[3,4-c]pyridin-6-yl)(naphthalen-1-yl)methanone] | 799
10 | Cn1nc2c(c1-c1ccccc1)CCN(C(=O)c1cccc(OC(F)(F)F)c1F)C2 [Example 4, (2-Fluoro-3-(trifluoromethoxy)phenyl)(2-methyl-3-phenyl-2,4,5,7-tetrahydro-6H-pyrazolo[3,4-c]pyridin-6-yl)methanone] | 433
11 | COc1cccc(C(F)(F)F)c1C(=O)N1CCc2c(nn(C)c2-c2ccccc2)C1 [Example 5, (2-Methoxy-6-(trifluoromethyl)phenyl)(2-methyl-3-phenyl-2,4,5,7-tetrahydro-6H-pyrazolo[3,4-c]pyridin-6-yl)methanone] | > 10000
12 | COc1cc(C(=O)N2CCc3c(nn(C)c3-c3ccccc3)C2)cc(C(F)(F)F)c1 [Example 6, (3-Methoxy-5-(trifluoromethyl)phenyl)(2-methyl-3-phenyl-2,4,5,7-tetrahydro-6H-pyrazolo[3,4-c]pyridin-6-yl)methanone] | 365
13 | COc1c(C)cccc1C(=O)N1CCc2c(nn(C)c2-c2ccccc2)C1 [Example 7, (2-Methoxy-3-methylphenyl)(2-methyl-3-phenyl-2,4,5,7-tetrahydro-6H-pyrazolo[3,4-c]pyridin-6-yl)methanone] | 113
14 | CCc1c(OC)cccc1C(=O)N1CCc2c(nn(C)c2-c2ccccc2)C1 [Example 8, (2-Ethyl-3-methoxyphenyl)(2-methyl-3-phenyl-2,4,5,7-tetrahydro-6H-pyrazolo[3,4-c]pyridin-6-yl)methanone] | 1840
15 | COc1ccc(C(=O)N2CCc3c(nn(C)c3-c3ccccc3)C2)cc1OC [Example 9, (3,4-Dimethoxyphenyl)(2-methyl-3-phenyl-2,4,5,7-tetrahydro-6H-pyrazolo[3,4-c]pyridin-6-yl)methanone] | 441
16 | COc1cccc(OC)c1C(=O)N1CCc2c(nn(C)c2-c2ccccc2)C1 [Example 10, (2,6-Dimethoxyphenyl)(2-methyl-3-phenyl-2,4,5,7-tetrahydro-6H-pyrazolo[3,4-c]pyridin-6-yl)methanone] | > 10000
17 | COc1cc(OC)cc(C(=O)N2CCc3c(nn(C)c3-c3ccccc3)C2)c1 [Example 11, (3,5-Dimethoxyphenyl)-(2-methyl-3-phenyl-5,7-dihydro-4H-pyrazolo[3,4-c]pyridin-6-yl)methanone] | 187
18 | Cn1nc2c(c1-c1ccccc1)CCN(C(=O)c1cccc(O)c1Cl)C2 [Example 12, (2-Chloro-3-hydroxyphenyl)(2-methyl-3-phenyl-2,4,5,7-tetrahydro-6H-pyrazolo[3,4-c]pyridin-6-yl)methanone] | 3420
19 | COc1cccc(C(=O)N2CCc3c(nn(C)c3-c3ccccc3)C2)c1Cl [Example 13, (2-Chloro-3-methoxyphenyl)(2-methyl-3-phenyl-2,4,5,7-tetrahydro-6H-pyrazolo[3,4-c]pyridin-6-yl)methanone] | 16.8
20 | COc1c(Cl)cccc1C(=O)N1CCc2c(nn(C)c2-c2ccccc2)C1 [Example 14, (3-Chloro-2-methoxy-phenyl)-(2-methyl-3-phenyl-5,7-dihydro-4H-pyrazolo[3,4-c]pyridin-6-yl)methanone] | 2590
21 | COc1cc(Cl)cc(C(=O)N2CCc3c(nn(C)c3-c3ccccc3)C2)c1 [Example 16, (3-Chloro-5-methoxyphenyl)(2-methyl-3-phenyl-2,4,5,7-tetrahydro-6H-pyrazolo[3,4-c]pyridin-6-yl)methanone] | 77.9
22 | Cc1cccc(C(=O)N2CCc3c(nn(C)c3-c3ccccc3)C2)c1N [Example 17, (2-Amino-3-methylphenyl)(2-methyl-3-phenyl-2,4,5,7-tetrahydro-6H-pyrazolo[3,4-c]pyridin-6-yl)methanone] | 1400

The remaining lines, values ahead:

Row | IC50 [nM] | SMILES
23 | 19.9 | CC1c2nn(C)c(-c3ccccc3)c2CCN1C(=O)c1ccc2ncccc2c1 (racemic) [Example 110, (2,7-Dimethyl-3-phenyl-2,4,5,7-tetrahydro-6H-pyrazolo[3,4-c]pyridin-6-yl)(quinolin-6-yl)methanone]
24 | 130 | CC1c2nn(C)c(-c3cccc(Cl)c3)c2CCN1C(=O)c1cnc2ccoc2c1 (racemic) [Example 126, (3-(3-Chlorophenyl)-2,7-dimethyl-2,4,5,7-tetrahydro-6H-pyrazolo[3,4-c]pyridin-6-yl)(furo[3,2-b]pyridin-6-yl)methanone]
25 | 18.4 | CC1c2nn(C)c(-c3cccc(Cl)c3)c2CCN1C(=O)c1ccc2nccnc2c1 (racemic) [Example 132, (3-(3-Chlorophenyl)-2,7-dimethyl-2,4,5,7-tetrahydro-6H-pyrazolo[3,4-c]pyridin-6-yl)(quinoxalin-6-yl)methanone]
26 | 8240 | C[C@@H]1c2nn(C)c(-c3ccccc3)c2CCN1C(=O)c1ccc2ncccc2c1 (single isomer, unassigned) [Example 111]
27 | 6.96 | C[C@H]1c2nn(C)c(-c3ccccc3)c2CCN1C(=O)c1ccc2ncccc2c1 (single isomer, unassigned) [Example 112]
28 | 44.3 | C[C@H]1c2nn(-c3ccccc3)c(-c3ccccc3)c2CCN1C(=O)c1ccc2ncccc2c1 (single isomer, unassigned) [Example 115]
29 | > 10000 | C[C@@H]1c2nn(C)c(-c3cccc(Cl)c3)c2CCN1C(=O)c1cnc2ccoc2c1 (single isomer, unassigned) [Example 127]
30 | 26.3 | C[C@H]1c2nn(C)c(-c3cccc(Cl)c3)c2CCN1C(=O)c1cnc2ccoc2c1 (single isomer, unassigned) [Example 128]
31 | > 10000 | C[C@@H]1c2nn(C)c(-c3cccc(Cl)c3)c2CCN1C(=O)c1ccc2nccnc2c1 (single isomer, unassigned) [Example 133]
32 | 4.27 | C[C@H]1c2nn(C)c(-c3cccc(Cl)c3)c2CCN1C(=O)c1ccc2nccnc2c1 (single isomer, unassigned) [Example 134]
33 | 7.3 | C[C@H]1c2nn(C)c(-c3cc(F)cc(F)c3)c2CCN1C(=O)c1ccc2ncccc2c1 (single isomer, unassigned) [Example 159]
34 | 7.04 | C[C@H]1c2nn(C)c(-c3cc(F)cc(F)c3)c2CCN1C(=O)c1ccc2nccnc2c1 (single isomer, unassigned) [Example 168]
35 | 3740 | C[C@@H]1c2nn(C)c(-c3cc(F)cc(F)c3)c2CCN1C(=O)c1ccc2nccnc2c1 (single isomer, unassigned) [Example 169]

Reference: US11820766B2, “Monoacylglycerol lipase modulators” (Janssen Pharmaceutica NV, priority 2018, dated 2023)
